Assay results published in publication PMC9696974 (Pharmaceutics, 2022).
Read-outs that look alike come from different tables or passages of the source.

Assays:
poly dAdT-poly dAdT = assay: Thermal denaturation of poly dAdT-poly dAdT (∆Tm); type: binding; conditions: I = 50 mM
Protocol: Experiments were conducted in an aqueous buffer solution (pH = 7.0 or pH= 5.0, I = 0.05 M, sodium cacodylate buffer). For the UV-Vis spectra were used Varian Cary 100 Bio spectrometer, for fluorescence spectra we used the Varian Cary Eclipse fluorimeter and for CD spectra we used the JASCO J815 spectropolarimeter, all conducted at 25.0 °C using appropriate quartz cuvettes (path length: 1 cm).
Polynucleotides were purchased as noted: poly dAdT-poly dAdT, poly dGdC-poly dGdC, poly A-poly U (ds-RNA), (Sigma-Aldrich, Schnelldorf, Germany), calf thymus (ct)-DNA (Sigma-Aldrich, Schnelldorf, Germany) and dissolved in sodium cacodylate buffer, I = 0.05 M, pH = 7.0. The ct-DNA was sonicated and filtered through a 0.45 µm filter to obtain mostly short (ca. 100 base pairs) rod-like B-helical DNA fragments. The concentration of DNA or RNA was determined spectroscopically as the c(nucleobase) using producer-provided molar extinction coefficients.
Thermal denaturation of ds-DNA, ds-RNA and their complexes with studied compounds was performed by monitoring the absorption change at 260 nm as a function of temperature. Tm values are the midpoints of the transition curves determined from the maximum of the first derivative and checked graphically by the tangent method. The ∆Tm values were calculated by subtracting the Tm of the free nucleic acid from the Tm of the complex. Every ∆Tm value here reported was the average of at least two measurements. The error in ∆Tm is ± 0.5 °C.

A549 cells [1] = assay: Confocal time-lapse imaging under irradiation; type: cell-based, human; conditions: A549, 1 µM (Figure 9), irradiated at 350 nm
Protocol: Cells were left in the cell incubator for 90 min to allow the compound to enter the cells. After incubation, the medium was replaced with 500 μL of fresh medium. […]

A549 cells [2] = assay: Mitochondrial ROS (MitoSOX Red); type: cell-based, human; conditions: A549, 1 µM plus UV irradiation, vs DMSO and 1M alone
Protocol: For measuring mitochondrial ROS, A549 cells were treated with 1 μM of the respective compound and incubated for 90 min (37 °C, 5% CO2), allowing the compound to enter to cells. Mitochondrial superoxide production was assessed with MitoSOX Red reagent (Thermo Fisher Scientific, Waltham, MA). The cells were washed with PBS and trypsinized, and then kept on ice unless otherwise specified. Cells were distributed into small tubes (3 × 10^5 cells per tube) and resuspended in 5 µM MitoSOX solution prepared in PBS. The cells were incubated on a thermomixer for 30 min at 37 °C, with shaking (300 rpm), in the dark, followed by two washes with PBS. Then, cells dyed with MitoSOX were re-suspended in 400 µL of PBS and distributed into black 96-well plates, 120 µL per well (in triplicate). A Tecan Infinite 200 fluorescence microplate reader with 485/520 and 520/590 nm excitation/emission wavelengths was used to measure MitoSOX fluorescence.

ct-DNA = tested on: ct-DNA; set-up: method as in PMID 33231335; conditions: I = 50 mM, cited from earlier work
[3] = tested on: poly dAdT-poly dAdT (AT-DNA, p(dAdT)2) (DNA, polymer) AT; assay: UV thermal denaturation at 260 nm; conditions: Na+ (sodium cacodylate, I = 50 mM); pH 7.0; r = [compound]/[polynucleotide] = 0.2; error ± 0.5 °C; per base
[4] = tested on: poly dAdT-poly dAdT (AT-DNA, p(dAdT)2) (DNA, polymer) AT; assay: fluorimetric titration, Scatchard; conditions: Na+ (sodium cacodylate, I = 0.05 M); pH 7.0, 25 °C; Scatchard n fixed at 0.2 or 0.3; per base
[5] = tested on: poly A-poly U (AU-RNA, pApU) (RNA, polymer) A/U; assay: fluorimetric titration, Scatchard; conditions: Na+ (sodium cacodylate, I = 0.05 M); pH 7.0, 25 °C; Scatchard n fixed at 0.2 or 0.3; per base
[6] = pKa from pH dependence of UV/vis spectrum; type: physicochemical; conditions: water (0.001 M HCl in miliQ water, titrated with NaOH), UV/vis spectra vs pH in water, c = 2.0 × 10^−5 M
Solubility in water = type: physicochemical
[7] = r = 0.2, pH 7.0, sodium cacodylate buffer
[8] = r = 0.3, pH 7.0, sodium cacodylate buffer

Compound: C[n+]1ccc(-c2cc3ccc4cccc5ccc(c2)c3c45)cc1 [1M, 2-para-N-methylpyridinium pyrene]
- ∆Tm Poly dAdT-Poly dAdT (poly dAdT-poly dAdT; [7]): 8 °C
- ∆Tm Poly dAdT-Poly dAdT (poly dAdT-poly dAdT; [8]): 9 °C
- Cell morphology under continuous irradiation (A549 cells [1]): swelling and even blebbing morphology
- mtROS levels (MitoSOX Red) (A549 cells [2]): significantly increased mtROS levels
- ∆Tm ct-DNA (ct-DNA; [7]): ^c 2 °C
- ∆Tm ct-DNA (ct-DNA; [8]): ^c 2 °C
- ∆Tm [3]: 8 °C
- logKs [4]: 5.9
- logKs [5]: 5.8

Compound: C[n+]1ccc(-c2cc3ccc4cc(-c5cc[n+](C)cc5)cc5ccc(c2)c3c45)cc1 [2M]
- ∆Tm Poly dAdT-Poly dAdT (poly dAdT-poly dAdT; [7]): 31 °C
- ∆Tm Poly dAdT-Poly dAdT (poly dAdT-poly dAdT; [8]): 33 °C
- Cell morphology under continuous irradiation (A549 cells [1]): swelling and even blebbing morphology
- ∆Tm [3]: 31 °C
- logKs [4]: 7.1
- logKs [5]: 8.5

Compound: c1cc2ccc3cc(-c4ccncc4)cc4ccc(c1)c2c34 [compound 1]
- pKa [6]: ~5
- Solubility in water (Solubility in water): poorly soluble in water
